Assay results reported in PMC11596928, “Substrate-Induced Structural Dynamics and Evolutionary Linkage of Siderophore-Iron ABC Transporters of Mycobacterium tuberculosis” (Medicina, 2024).

Molecular target: ATPase II (rATPase II), ATPase domain of IrtB (Mycobacterium tuberculosis, UniProt P9WQJ7)
Sequence (P9WQJ7 313-579): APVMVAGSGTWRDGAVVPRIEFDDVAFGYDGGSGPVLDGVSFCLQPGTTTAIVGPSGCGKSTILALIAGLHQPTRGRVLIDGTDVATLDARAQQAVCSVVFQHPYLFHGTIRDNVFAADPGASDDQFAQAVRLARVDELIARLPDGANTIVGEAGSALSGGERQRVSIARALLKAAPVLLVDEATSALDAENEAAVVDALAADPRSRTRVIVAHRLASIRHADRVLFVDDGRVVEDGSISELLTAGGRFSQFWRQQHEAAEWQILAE

Nc1ncnc2c1ncn2[C@@H]1O[C@H](COP(=O)(O)OP(=O)(O)OP(=O)(O)O)[C@@H](O)[C@H]1O [ATP]
analytical gel filtration (ATP-dependent dimerization): ATPase II (the ATPase belonging to IrtB) dimers were captured as stable dimers
